Data as given in paper PMC7044277 (Nature Communications, 2020).
Where “and” joins values, the source holds several entries; their conditions need not be identical. Identical values can stand only once.

What was measured:
Type in all cases: cell-based
[1] = target: T1, 320 non-olfactory GPCRs (Homo sapiens, UniProt P41231); conditions: receptor P2RY2; replicate values, Fig_4g
T1 construct: expressed in transfected cells; host or cells: HTLA cells

[2] = target: T2, 320 non-olfactory GPCRs (Homo sapiens, UniProt O00574)
T2 construct: expressed in transfected cells; host or cells: HTLA cells
T2 sequence (O00574 whole entry): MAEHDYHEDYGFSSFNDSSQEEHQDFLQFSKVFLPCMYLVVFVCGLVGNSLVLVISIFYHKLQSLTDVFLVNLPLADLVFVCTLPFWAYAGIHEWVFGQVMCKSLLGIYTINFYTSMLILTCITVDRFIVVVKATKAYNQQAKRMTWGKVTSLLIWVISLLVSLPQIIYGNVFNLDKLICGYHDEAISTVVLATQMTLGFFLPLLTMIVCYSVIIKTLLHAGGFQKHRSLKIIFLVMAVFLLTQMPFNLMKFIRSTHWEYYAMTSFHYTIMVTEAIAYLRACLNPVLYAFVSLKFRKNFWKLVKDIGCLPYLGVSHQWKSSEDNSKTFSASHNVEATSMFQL

[3] = target: T3, 320 non-olfactory GPCRs (Homo sapiens, UniProt P43088); conditions: receptor PTGFR; replicate values, Fig_4g
T3 construct: expressed in transfected cells; host or cells: HTLA cells
T3 sequence (P43088 whole entry): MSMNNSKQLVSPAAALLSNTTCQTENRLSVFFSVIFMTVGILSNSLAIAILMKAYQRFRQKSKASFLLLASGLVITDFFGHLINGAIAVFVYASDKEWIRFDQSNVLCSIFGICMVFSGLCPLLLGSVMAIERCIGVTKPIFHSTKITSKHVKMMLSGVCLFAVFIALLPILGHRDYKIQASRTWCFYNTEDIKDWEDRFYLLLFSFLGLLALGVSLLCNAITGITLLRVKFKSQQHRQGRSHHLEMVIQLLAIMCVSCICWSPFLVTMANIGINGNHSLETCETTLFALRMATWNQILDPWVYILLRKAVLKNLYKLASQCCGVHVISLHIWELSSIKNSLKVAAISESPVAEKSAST

[4] = target: T4, 320 non-olfactory GPCRs (Homo sapiens, UniProt P37288)
T4 construct: expressed in transfected cells; host or cells: HTLA cells
T4 sequence (P37288 whole entry): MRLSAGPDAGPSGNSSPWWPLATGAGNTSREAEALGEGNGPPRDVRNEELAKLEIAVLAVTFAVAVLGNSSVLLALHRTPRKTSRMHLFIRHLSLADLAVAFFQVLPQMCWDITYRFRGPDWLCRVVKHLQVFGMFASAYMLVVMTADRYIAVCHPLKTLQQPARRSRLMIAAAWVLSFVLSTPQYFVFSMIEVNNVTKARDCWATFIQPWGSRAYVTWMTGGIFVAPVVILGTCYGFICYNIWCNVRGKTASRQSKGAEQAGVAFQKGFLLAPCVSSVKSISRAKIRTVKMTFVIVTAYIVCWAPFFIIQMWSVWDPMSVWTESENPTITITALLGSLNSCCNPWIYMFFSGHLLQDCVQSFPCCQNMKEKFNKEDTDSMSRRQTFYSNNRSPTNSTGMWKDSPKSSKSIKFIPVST
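For Fold of Basal in this document: compound tested at 1 µM final concentration.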
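For GPCRome agonism screen response in this document: fold over basal response of each receptor without drug.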

T1 sequence (P41231 whole entry): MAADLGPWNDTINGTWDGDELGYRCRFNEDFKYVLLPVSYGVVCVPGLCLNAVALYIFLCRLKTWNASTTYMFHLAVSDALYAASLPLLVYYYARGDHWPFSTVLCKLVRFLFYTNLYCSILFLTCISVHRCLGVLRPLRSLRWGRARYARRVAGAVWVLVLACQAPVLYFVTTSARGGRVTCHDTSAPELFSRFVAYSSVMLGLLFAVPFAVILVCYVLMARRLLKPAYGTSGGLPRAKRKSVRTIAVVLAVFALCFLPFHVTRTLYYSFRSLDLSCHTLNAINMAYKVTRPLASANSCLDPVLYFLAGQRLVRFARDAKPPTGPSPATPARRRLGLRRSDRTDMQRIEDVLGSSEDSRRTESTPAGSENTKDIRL

Compound: CCOc1cccc2cc(C(C)NCC3(O)CCCCC3)oc12 (stereo not shown) [O4LE6]
- GPCRome agonism screen response [1]: 1.397 and 0.7849 and 2.272 and 0.7466
- Fold of Basal [2]: 0.9849 and 0.6404 and 1.204 and 0.796
- GPCRome agonism screen response [3]: 0.453 and 1.129 and 0.3537 and 0.6778
- Fold of Basal [4]: 0.5721 and 0.4612 and 0.3897 and 0.4481
